This data set can be described thus: Short-term stability in spiked pooled human plasma (bench-top, 4 °C, 56 °C).

Take `CCN1CCN(Cc2ccc(Nc3ncc(F)c(-c4cc(F)c5nc(C)n(C(C)C)c5c4)n3)nc2)CC1` [Abemaciclib]: the “Short-time stability (1h, 56°C) Accuracy [%]” value by setting is: (validation standard 2xLLOV) 27.9%; (validation standard LLOV) 27.4%; (validation standard MOV) 34.3%; (validation standard ULOV) 34.9%. Also, the “Short-time stability (24h, 4°C, without daylight) Accuracy [%]” value (validation standard 2xLLOV) is listed as 102.9%; the “Short-time stability (24h, 4°C, without daylight) Accuracy [%]” value (validation standard LLOV) was found to be 93.7%; the “Short-time stability (24h, 4°C, without daylight) Accuracy [%]” value (validation standard MOV) was found to be 104.5%; the “Short-time stability (24h, 4°C, without daylight) Accuracy [%]” value (validation standard ULOV) came to 94.4%. For the same molecule, the “Short-time stability (24h, RT, with daylight) Accuracy [%]” value was 88.7% (validation standard 2xLLOV), 90.1% (validation standard LLOV), 90.3% (validation standard MOV) and 88.4% (validation standard ULOV). Besides, the “Short-time stability (24h, RT, without daylight) Accuracy [%]” value is, setting by setting: (validation standard 2xLLOV) 87.4%; (validation standard LLOV) 88.2%; (validation standard MOV) 91.7%; (validation standard ULOV) 87.5%.

Regarding `C[C@]12CC[C@H](O)CC1=CC[C@@H]1[C@@H]2CC[C@]2(C)C(c3cccnc3)=CC[C@@H]12` [Abiraterone], the “Short-time stability (1h, 56°C) Accuracy [%]” value (validation standard 2xLLOV) is on record as 46.5%; the “Short-time stability (1h, 56°C) Accuracy [%]” value (validation standard LLOV) was found to be 49.9%; the “Short-time stability (1h, 56°C) Accuracy [%]” value (validation standard MOV) is reported as 40.7%; the “Short-time stability (1h, 56°C) Accuracy [%]” value (validation standard ULOV) was found to be 34.9%. Also, the “Short-time stability (24h, 4°C, without daylight) Accuracy [%]” value (validation standard 2xLLOV) is listed as 96.9%; the “Short-time stability (24h, 4°C, without daylight) Accuracy [%]” value (validation standard LLOV) is on record as 104.6%; the “Short-time stability (24h, 4°C, without daylight) Accuracy [%]” value (validation standard MOV) came out at 97.4%; the “Short-time stability (24h, 4°C, without daylight) Accuracy [%]” value (validation standard ULOV) is recorded as 95.4%. Moreover, the “Short-time stability (24h, RT, with daylight) Accuracy [%]” value reads like this: (validation standard 2xLLOV) 101.7%; (validation standard LLOV) 105.6%; (validation standard MOV) 103.1%; (validation standard ULOV) 103.3%. Besides, the “Short-time stability (24h, RT, without daylight) Accuracy [%]” value amounted to 101.5% (validation standard 2xLLOV), 105.2% (validation standard LLOV), 101.1% (validation standard MOV) and 102.0% (validation standard ULOV).

Consider `CN(C)C/C=C/C(=O)Nc1cc2c(Nc3ccc(F)c(Cl)c3)ncnc2cc1O[C@H]1CCOC1` [Afatinib], for which the “concentrations in short-term stability investigations” value (24 h, room temperature, with or without light) is 64.3–92.5%. For the setting “validation standard 2xLLOV”, the “Short-time stability (1h, 56°C) Accuracy [%]” value is on record as 30.4%; the “Short-time stability (24h, 4°C, without daylight) Accuracy [%]” value is 85.5%; the “Short-time stability (24h, RT, with daylight) Accuracy [%]” value is listed as 80.8%; the “Short-time stability (24h, RT, without daylight) Accuracy [%]” value was found to be 92.5%. Where the note is “validation standard LLOV”, the “Short-time stability (1h, 56°C) Accuracy [%]” value stood at 7.2%; the “Short-time stability (24h, 4°C, without daylight) Accuracy [%]” value is listed as 85.9%; the “Short-time stability (24h, RT, with daylight) Accuracy [%]” value was 64.3%; the “Short-time stability (24h, RT, without daylight) Accuracy [%]” value was 69.9%. Further, under “validation standard MOV”, the “Short-time stability (1h, 56°C) Accuracy [%]” value turned out to be 36.2%; the “Short-time stability (24h, 4°C, without daylight) Accuracy [%]” value is reported as 97.9%; the “Short-time stability (24h, RT, with daylight) Accuracy [%]” value is recorded as 89.4%; the “Short-time stability (24h, RT, without daylight) Accuracy [%]” value came to 91.4%. Besides, where the note is “validation standard ULOV”, the “Short-time stability (1h, 56°C) Accuracy [%]” value turned out to be 33.2%; the “Short-time stability (24h, 4°C, without daylight) Accuracy [%]” value is 92.8%; the “Short-time stability (24h, RT, with daylight) Accuracy [%]” value is 77.8%; the “Short-time stability (24h, RT, without daylight) Accuracy [%]” value worked out at 82.7%.

As to `O=C1CN2Cc3c(ccc(Cl)c3Cl)N=C2N1` [Anagrelide], for the setting “validation standard 2xLLOV”, the “Short-time stability (1h, 56°C) Accuracy [%]” value is given as 66.3%; the “Short-time stability (24h, 4°C, without daylight) Accuracy [%]” value amounted to 104.2%; the “Short-time stability (24h, RT, with daylight) Accuracy [%]” value is listed as 84.8%; the “Short-time stability (24h, RT, without daylight) Accuracy [%]” value worked out at 84.4%. For the same molecule, for the setting “validation standard LLOV”, the “Short-time stability (1h, 56°C) Accuracy [%]” value was found to be 55.6%; the “Short-time stability (24h, 4°C, without daylight) Accuracy [%]” value was 90.4%; the “Short-time stability (24h, RT, with daylight) Accuracy [%]” value came out at 78.3%; the “Short-time stability (24h, RT, without daylight) Accuracy [%]” value is reported as 67.4%. Also, for the setting “validation standard MOV”, the “Short-time stability (1h, 56°C) Accuracy [%]” value was found to be 52.9%; the “Short-time stability (24h, 4°C, without daylight) Accuracy [%]” value came out at 96.9%; the “Short-time stability (24h, RT, with daylight) Accuracy [%]” value was 96.0%; the “Short-time stability (24h, RT, without daylight) Accuracy [%]” value is on record as 88.7%. Further, under “validation standard ULOV”, the “Short-time stability (1h, 56°C) Accuracy [%]” value was 46.2%; the “Short-time stability (24h, 4°C, without daylight) Accuracy [%]” value is recorded as 93.5%; the “Short-time stability (24h, RT, with daylight) Accuracy [%]” value stood at 98.5%; the “Short-time stability (24h, RT, without daylight) Accuracy [%]” value is 94.1%.

For the origin of these results see article PMC8699473, “An Easily Expandable Multi-Drug LC-MS Assay for the Simultaneous Quantification of 57 Oral Antitumor Drugs in Human Plasma” (Cancers, 2021).
